# From publication PMC9103764, “Pilot Study on Acute Effects of Pharmacological Intraperitoneal L-Homoarginine on Homeostasis of Lysine and Other Amino Acids in a Rat Model of Isoprenaline-Induced Takotsubo Cardiomyopathy” (International Journal of Molecular Sciences, 2022)
# Columns and labels:
# [1] = set-up: method as in PMID 31776762; conditions: decarboxylation product of hArg; rat TTC model; cited from earlier work
# arginase = test system: arginase; set-up: method as in PMID 31028716; conditions: cited from earlier work
# [2] = oral hArg 125 mg/day, cited from earlier work
# [3] = set-up: method as in PMID 28710553; conditions: single i.p. hArg 20, 220, 440 mg/kg; cited from earlier work
# [4] = test system: L-Arginine:glycine amidinotransferase (AGAT); test: Equilibrium constants of the AGAT-catalyzed reactions calculated from free amino acid concentrations in rat organs; format: in vivo, Sprague-Dawley rats
# [5] = R1, hArg 440 mg/kg i.p., sacrifice 32 min, ISO 50 mg/kg i.p. at 15 min
# [6] = R2, hArg 20 mg/kg i.p., sacrifice 64 min, ISO 50 mg/kg i.p. at 15 min
# [7] = R3, hArg 20 mg/kg i.p., sacrifice 28 min, ISO 50 mg/kg i.p. at 15 min
# [8] = R4, hArg 440 mg/kg i.p., sacrifice 87 min, ISO 50 mg/kg i.p. at 15 min
# [9] = R13, hArg 20 mg/kg i.p., sacrifice 126 min, ISO 50 mg/kg i.p. at 15 min
# [10] = R14, hArg 220 mg/kg i.p., sacrifice 108 min, ISO 50 mg/kg i.p. at 15 min
# [11] = R17, hArg 440 mg/kg i.p., sacrifice 14 min, no ISO
# [12] = R18, hArg 20 mg/kg i.p., sacrifice 114 min, ISO 50 mg/kg i.p. at 15 min
compound,measurement,setting,value
"N=C(N)NCCCC[C@H](N)C(=O)O [hArg, L-homoarginine]","tissue homoagmatine (hAgm) concentration, median [interquartile range]",[1],34.8 [4.6–270] nM
same,substrate quality for arginase,arginase,poor substrate
same,effects on cognition,[2]; healthy humans,did not reveal any appreciable effects on cognition
same,increase of plasma Lys concentration compared to placebo,[2]; healthy young volunteers,about 8%
same,"pulse wave velocity, augmentation index, flow-mediated vasodilatation, corticospinal and cortical excitability",[2]; healthy young volunteers,without changes
same,effect on citrullination (proteinic Cit) in organs,"all organs, data not shown",independent of the hArg dose
same,incorporation of pharmacological hArg into tissue proteins,"rat, in vivo",no incorporation of pharmacological hArg into tissue proteins
same,changes in nitrite and nitrate,[3],marginal
same,"KhArg/KGAA ratio, kidney",[4]; [5],0.13
same,"KhArg/KGAA ratio, lung",[4]; [5],6.8
same,"equilibrium constant KGAA, kidney",[4]; [5],1.83
same,"equilibrium constant KGAA, lung",[4]; [5],0.06
same,"equilibrium constant KhArg, kidney",[4]; [5],0.24
same,"equilibrium constant KhArg, lung",[4]; [5],0.40
same,"KhArg/KGAA ratio, heart",[4]; [6],0.002
same,"KhArg/KGAA ratio, kidney",[4]; [6],0.23
same,"KhArg/KGAA ratio, liver",[4]; [6],0.19
same,"KhArg/KGAA ratio, lung",[4]; [6],0.13
same,"equilibrium constant KGAA, heart",[4]; [6],2.26
same,"equilibrium constant KGAA, kidney",[4]; [6],0.31
same,"equilibrium constant KGAA, liver",[4]; [6],0.09
same,"equilibrium constant KGAA, lung",[4]; [6],0.023
same,"equilibrium constant KhArg, heart",[4]; [6],0.005
same,"equilibrium constant KhArg, kidney",[4]; [6],0.07
same,"equilibrium constant KhArg, liver",[4]; [6],0.02
same,"equilibrium constant KhArg, lung",[4]; [6],0.003
same,"KhArg/KGAA ratio, heart",[4]; [7],0.001
same,"KhArg/KGAA ratio, kidney",[4]; [7],0.16
same,"KhArg/KGAA ratio, liver",[4]; [7],0.35
same,"KhArg/KGAA ratio, lung",[4]; [7],0.06
same,"equilibrium constant KGAA, heart",[4]; [7],1.39
same,"equilibrium constant KGAA, kidney",[4]; [7],0.37
same,"equilibrium constant KGAA, liver",[4]; [7],2.11
same,"equilibrium constant KGAA, lung",[4]; [7],5.34
same,"equilibrium constant KhArg, heart",[4]; [7],0.002
same,"equilibrium constant KhArg, kidney",[4]; [7],0.06
same,"equilibrium constant KhArg, liver",[4]; [7],0.74
same,"equilibrium constant KhArg, lung",[4]; [7],0.31
same,"KhArg/KGAA ratio, kidney",[4]; [8],2.18
same,"KhArg/KGAA ratio, liver",[4]; [8],1.61
same,"KhArg/KGAA ratio, lung",[4]; [8],2.61
same,"equilibrium constant KGAA, kidney",[4]; [8],0.53
same,"equilibrium constant KGAA, liver",[4]; [8],12.6
same,"equilibrium constant KGAA, lung",[4]; [8],0.13
same,"equilibrium constant KhArg, kidney",[4]; [8],1.16
same,"equilibrium constant KhArg, liver",[4]; [8],20.3
same,"equilibrium constant KhArg, lung",[4]; [8],0.34
same,"KhArg/KGAA ratio, heart",[4]; [9],0.43
same,"KhArg/KGAA ratio, kidney",[4]; [9],0.006
same,"KhArg/KGAA ratio, liver",[4]; [9],0.31
same,"KhArg/KGAA ratio, lung",[4]; [9],0.27
same,"equilibrium constant KGAA, heart",[4]; [9],0.23
same,"equilibrium constant KGAA, kidney",[4]; [9],1.14
same,"equilibrium constant KGAA, liver",[4]; [9],2.45
same,"equilibrium constant KGAA, lung",[4]; [9],0.07
same,"equilibrium constant KhArg, heart",[4]; [9],0.10
same,"equilibrium constant KhArg, kidney",[4]; [9],0.007
same,"equilibrium constant KhArg, liver",[4]; [9],0.76
same,"equilibrium constant KhArg, lung",[4]; [9],0.02
same,"KhArg/KGAA ratio, heart",[4]; [10],1.9
same,"KhArg/KGAA ratio, kidney",[4]; [10],0.05
same,"KhArg/KGAA ratio, liver",[4]; [10],4.8
same,"KhArg/KGAA ratio, lung",[4]; [10],1.13
same,"equilibrium constant KGAA, heart",[4]; [10],0.20
same,"equilibrium constant KGAA, kidney",[4]; [10],1.32
same,"equilibrium constant KGAA, liver",[4]; [10],1.07
same,"equilibrium constant KGAA, lung",[4]; [10],0.03
same,"equilibrium constant KhArg, heart",[4]; [10],0.38
same,"equilibrium constant KhArg, kidney",[4]; [10],0.06
same,"equilibrium constant KhArg, liver",[4]; [10],5.16
same,"equilibrium constant KhArg, lung",[4]; [10],0.03
same,"KhArg/KGAA ratio, heart",[4]; [11],3.8
same,"KhArg/KGAA ratio, kidney",[4]; [11],0.07
same,"KhArg/KGAA ratio, liver",[4]; [11],6.7
same,"KhArg/KGAA ratio, lung",[4]; [11],4.0
same,"equilibrium constant KGAA, heart",[4]; [11],0.09
same,"equilibrium constant KGAA, kidney",[4]; [11],1.64
same,"equilibrium constant KGAA, liver",[4]; [11],0.80
same,"equilibrium constant KGAA, lung",[4]; [11],0.04
same,"equilibrium constant KhArg, heart",[4]; [11],0.33
same,"equilibrium constant KhArg, kidney",[4]; [11],0.12
same,"equilibrium constant KhArg, liver",[4]; [11],5.38
same,"equilibrium constant KhArg, lung",[4]; [11],0.17
same,"KhArg/KGAA ratio, heart",[4]; [12],0.36
same,"KhArg/KGAA ratio, kidney",[4]; [12],0.005
same,"KhArg/KGAA ratio, liver",[4]; [12],0.12
same,"KhArg/KGAA ratio, lung",[4]; [12],0.12
